Assay results reported in article PMC4658230 (Toxicology, 2015).
Like-named read-outs stand apart in the source and are kept apart here.

How the values were obtained:
erCYP2E1 [1] = biological target: T1, erCYP2E1 (Rattus norvegicus, UniProt P05182); assay: Steady-state kinetics of substrate oxidation by rat liver microsomes; settings: for Preferred Mechanism: rat liver microsomes, best of six steady-state mechanisms (DynaFit)
erCYP2E1 [2] = biological target: T1, erCYP2E1; settings: microsomes 0.5 mg/mL, methanol only
mtCYP2E1 [3] = biological target: T2, mtCYP2E1 (Rattus norvegicus, UniProt P05182); settings: mitochondria 2 mg/mL, methanol only
T2 sequence (P05182 2-493 limits assumed): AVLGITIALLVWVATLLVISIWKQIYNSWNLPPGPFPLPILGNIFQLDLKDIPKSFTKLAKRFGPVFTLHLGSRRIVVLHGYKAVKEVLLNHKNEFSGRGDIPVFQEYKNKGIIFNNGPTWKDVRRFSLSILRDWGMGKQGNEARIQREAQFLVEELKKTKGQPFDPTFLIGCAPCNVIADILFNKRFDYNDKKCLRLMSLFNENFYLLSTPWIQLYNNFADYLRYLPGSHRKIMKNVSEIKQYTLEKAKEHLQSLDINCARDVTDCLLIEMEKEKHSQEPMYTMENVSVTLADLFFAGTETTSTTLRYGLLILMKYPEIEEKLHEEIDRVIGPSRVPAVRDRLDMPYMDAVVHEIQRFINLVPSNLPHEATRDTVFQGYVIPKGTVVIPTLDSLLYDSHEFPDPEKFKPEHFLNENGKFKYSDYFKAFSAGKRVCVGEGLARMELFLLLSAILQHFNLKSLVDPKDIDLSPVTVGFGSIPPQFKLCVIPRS

mtCYP2E1 [4] = biological target: T2, mtCYP2E1; settings: for Preferred Mechanism: rat liver mitochondria, best of six steady-state mechanisms (DynaFit)
erCYP2E1 [5] = biological target: T1, erCYP2E1; settings: equal CYP2E1 levels in each compartment assumed
mtCYP2E1 [6] = biological target: T2, mtCYP2E1; settings: low concentration (10 μM); equal CYP2E1 levels in each compartment assumed
[7] = more recent studies of industrial workers; ref Bonanni et al. 2015; cited from earlier work
[8] = rat liver microsomes 0.5 mg/mL, 1 mM NADPH, 37°C, pH 7.4

T1 sequence (P05182 whole entry): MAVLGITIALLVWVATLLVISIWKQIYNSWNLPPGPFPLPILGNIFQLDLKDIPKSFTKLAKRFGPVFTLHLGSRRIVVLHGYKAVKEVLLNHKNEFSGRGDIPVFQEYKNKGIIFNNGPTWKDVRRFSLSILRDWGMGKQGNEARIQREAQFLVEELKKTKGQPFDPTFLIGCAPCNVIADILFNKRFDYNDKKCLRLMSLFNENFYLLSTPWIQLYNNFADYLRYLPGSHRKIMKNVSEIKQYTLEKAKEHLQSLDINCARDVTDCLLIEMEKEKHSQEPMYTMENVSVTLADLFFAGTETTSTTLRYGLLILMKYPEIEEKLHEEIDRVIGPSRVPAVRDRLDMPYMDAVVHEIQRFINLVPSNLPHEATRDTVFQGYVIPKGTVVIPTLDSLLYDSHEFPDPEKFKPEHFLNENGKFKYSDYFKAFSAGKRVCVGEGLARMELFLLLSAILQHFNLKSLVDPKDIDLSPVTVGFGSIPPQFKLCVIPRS

Row | kcat (mtCYP2E1 [4]; rat liver mitochondria 2 mg/mL, 1 mM NADPH, 37°C, pH 7.4) | SMILES | Kss (erCYP2E1 [1]; [8]) | Preferred Mechanism (erCYP2E1 [1]) | control (uninhibited) rate of substrate oxidation by erCYP2E1 (erCYP2E1 [2]; 50 μM substrate) | control (uninhibited) rate of substrate oxidation by erCYP2E1 (erCYP2E1 [2]; 500 μM substrate) | control (uninhibited) rate of substrate oxidation by mtCYP2E1 (mtCYP2E1 [3]; 50 μM substrate) | control (uninhibited) rate of substrate oxidation by mtCYP2E1 (mtCYP2E1 [3]; 500 μM substrate) | turnover rate of mtCYP2E1 lower than erCYP2E1 (mtCYP2E1 [4]; mtCYP2E1 versus erCYP2E1) | Preferred Mechanism (mtCYP2E1 [4]) | binding of second molecule weaker than first binding event (erCYP2E1 [1]; erCYP2E1, rat liver microsomes) | rate of turnover of ternary complex higher than binary enzyme-substrate complex (erCYP2E1 [1]; erCYP2E1, rat liver microsomes) | kcat (erCYP2E1 [1]; [8]) | kcat2 (erCYP2E1 [1]; [8]) | turnover rate of mtCYP2E1 lower than microsomal enzyme (mtCYP2E1 [4]; versus erCYP2E1 after first substrate binding event) | percent of total metabolism through erCYP2E1 (erCYP2E1 [5]; high concentration (500 μM)) | percent of total metabolism through erCYP2E1 (erCYP2E1 [5]; low concentration (10 μM)) | percent of total metabolism through mtCYP2E1 (mtCYP2E1 [6]) | styrene plasma levels [7]
1 | – | O=[N+]([O-])c1ccc(O)cc1 [4-nitrophenol, reference compound] | 2000 (1600 to 2600) μM | Two-Site Model, ES active only | 290 pmol/min/pmol CYP2E1 | 1080 pmol/min/pmol CYP2E1 | 26 pmol/min/pmol CYP2E1 | 60 pmol/min/pmol CYP2E1 | nine-fold | One-Site Model (Michaelis-Menten) | – | – | – | – | – | – | – | – | –
2 | – | Nc1ccccc1 [aniline] | 54 (21 to 550) μM | Two-Site Model, ES and ESS active | 260 pmol/min/mg | 1000 pmol/min/mg | 28 pmol/min/pmol CYP2E1 | 58 pmol/min/pmol CYP2E1 | – | One-Site Model (Michaelis-Menten) | 25 fold | two-fold | 500 (230 to 770) pmol/min/pmol CYP2E1 | 1000 (970 to 1300) pmol/min/pmol CYP2E1 | 10 fold | 95% | approximately 94% | about 6% | –
3 | 100 (96 to 110) pmol/min/pmol CYP2E1 | C=Cc1ccccc1 [styrene] | – | – | 310 pmol/min/mg | 390 pmol/min/mg | 54 pmol/min/pmol CYP2E1 | 76 pmol/min/pmol CYP2E1 | – | – | – | – | 630 (580 to 690) pmol/min/pmol CYP2E1 | – | – | – | – | – | 0.06 µM
